Data on eight molecules can be found in ChEMBL document CHEMBL1201862, “PubChem BioAssay data set” (2004).

The structures appear in SMILES notation.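 Tested at 5 concentrations; 48 h exposure; 96-well plates; endpoints linearly interpolated, else capped at highest concentration. Abbreviation: GI50, concentration required for 50% inhibition of growth.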 The source made the active and inactive calls. No stated cut-off is given here; in the data, active = GI50 up to about 1.1 µM and inactive = higher.

Test systems include HT-29; SK-MEL-28; IGROV-1; HOP-62; SW-620; HL-60; SNB-75; HCC 2998; LOX IMVI; OVCAR-4; K562; SK-OV-3; U-251; MOLT-4; A549; OVCAR-3; MDA-MB-231; NCI-H522; T47D; SNB-19.
Test in all cases: DTP human tumour cell line panel, 48 h

`COc1ccc(/C=C2\CCCC(CN(C)C)C2=O)cc1` (configuration not stated): the GI50 (commonly the concentration at which growth is held to half of that of the control) with HT-29 is 1.75 µM (inactive); in the assay with SK-MEL-28, 2.01 µM (inactive); in the assay with IGROV-1 it was 2.69 µM (inactive); with HOP-62, 17.5 µM (inactive); with SW-620, 0.891 µM (active); in the assay with HL-60, 0.618 µM (active). In addition, the GI50 was 7.45 µM (inactive) in the assay with SNB-75; 6.71 µM (inactive) with HCC 2998; 1.34 µM (inactive) in the assay on LOX IMVI; 1.76 µM (inactive) with OVCAR-4; 1.24 µM (inactive) in the assay with K562; 9.89 µM (inactive) in the assay with SK-OV-3. Moreover, the GI50 in the assay on U-251 was 1.95 µM (inactive); with MOLT-4 it was 0.774 µM (active); with A549, 17.7 µM (inactive); with OVCAR-3, 1.94 µM (inactive); in the assay with MDA-MB-231, 3.03 µM (inactive); in the assay with NCI-H522 it was 1.37 µM (inactive). For the same molecule, the figures for the GI50 in the assay on T47D and in the assay on SNB-19 were 2.17 µM (inactive) and 7.36 µM (inactive), respectively.

In the case of `CC1CC(C)[C@H](O)C([C@H](O)CC2CC(=O)N(C)C(=O)C2)C1` (some centres not stated), the GI50 with HT-29, in the assay with SK-MEL-28, with IGROV-1, with HOP-62, in the assay with SW-620 and in the assay with HL-60 was > 100 µM (inactive) in each case. Besides, the GI50 was 95.1 µM (inactive) with SNB-75; > 100 µM (inactive) with HCC 2998; > 100 µM (inactive) with LOX IMVI; > 100 µM (inactive) in the assay with OVCAR-4; > 100 µM (inactive) with K562; > 100 µM (inactive) in the assay on SK-OV-3. For the same molecule, the GI50 was > 100 µM (inactive) with U-251; > 100 µM (inactive) in the assay with MOLT-4; > 100 µM (inactive) in the assay with A549; > 100 µM (inactive) in the assay with OVCAR-3; > 100 µM (inactive) in the assay on MDA-MB-231; 57 µM (inactive) in the assay with NCI-H522. Besides, the GI50 with T47D and in the assay on SNB-19 was > 100 µM (inactive) each time.

`c1ccc2c3c([nH]c2c1)C1c2[nH]c4ccccc4c2CCN1CC3`: the GI50 is 10.9 µM (inactive) with HT-29; 15.2 µM (inactive) in the assay with SK-MEL-28; 12.7 µM (inactive) in the assay with IGROV-1; 13.6 µM (inactive) in the assay on HOP-62; 16.2 µM (inactive) in the assay with SW-620; 16.8 µM (inactive) in the assay with HL-60. In addition, the GI50 in the assay with SNB-75 is 16.7 µM (inactive); in the assay on HCC 2998, 7.64 µM (inactive); in the assay on LOX IMVI it was 11.6 µM (inactive); with OVCAR-4 it was 4.49 µM (inactive); in the assay with K562, 5.78 µM (inactive); with SK-OV-3 it was 14.1 µM (inactive). Moreover, the GI50 was 7.59 µM (inactive) in the assay on MOLT-4; 14.7 µM (inactive) in the assay with A549; 12.4 µM (inactive) in the assay with OVCAR-3; 14.7 µM (inactive) in the assay with MDA-MB-231; 11.6 µM (inactive) in the assay on NCI-H522; 14.9 µM (inactive) in the assay with T47D.

With `COc1ccc(C2C(C=O)C(N3CCN(C)CC3)=Nc3nc4ccccc4n32)cc1` (configuration not stated), the GI50 in the assay on HT-29 was 15.8 µM (inactive); in the assay on SK-MEL-28, 17 µM (inactive); in the assay with IGROV-1, 16.3 µM (inactive); in the assay on HOP-62 it was 12.2 µM (inactive); in the assay with SW-620, 17.3 µM (inactive); in the assay with HL-60, 2.09 µM (inactive). For the same molecule, the GI50 in the assay on SNB-75 is 11.8 µM (inactive); in the assay with HCC 2998, 17.7 µM (inactive); in the assay on LOX IMVI, 17.3 µM (inactive); with OVCAR-4, 8.18 µM (inactive); in the assay with K562, 1.08 µM (active); in the assay on U-251, 17.7 µM (inactive). Further, the GI50 with MOLT-4 is < 0.01 µM (active); with A549, 17.2 µM (inactive); in the assay on OVCAR-3, 14.3 µM (inactive); in the assay with MDA-MB-231 it was 12.1 µM (inactive); in the assay on NCI-H522 it was 13 µM (inactive); in the assay with T47D it was 11.7 µM (inactive). In addition, the GI50 with SNB-19 was 15.3 µM (inactive).

As to `O=C(/C=C(\Nc1ccccc1O)c1ccccc1)C(=O)NC12CC3CC(CC(C3)C1)C2`, the GI50 in the assay on HT-29 is 2.41 µM (inactive); with SK-MEL-28, > 10 µM (inactive); in the assay with IGROV-1, > 10 µM (inactive); with HOP-62 it was > 10 µM (inactive); in the assay with SW-620, > 10 µM (inactive); in the assay on HL-60, 3.52 µM (inactive). The GI50 was > 10 µM (inactive) in the assay with SNB-75; > 10 µM (inactive) with HCC 2998; 9.14 µM (inactive) with LOX IMVI; > 10 µM (inactive) in the assay with OVCAR-4; > 10 µM (inactive) with K562; > 10 µM (inactive) with SK-OV-3. For the same molecule, the GI50 in the assay with U-251 is > 10 µM (inactive); with MOLT-4 it was 5.66 µM (inactive); in the assay on OVCAR-3, > 10 µM (inactive); in the assay with MDA-MB-231 it was > 10 µM (inactive); in the assay on NCI-H522, > 10 µM (inactive); in the assay with T47D, > 10 µM (inactive).

As for `S=C1SSC2N=CC=CC12` (configuration not stated), the GI50 with HT-29 was > 100 µM (inactive); with SK-MEL-28 it was > 100 µM (inactive); with IGROV-1, 78.7 µM (inactive); with SW-620, > 100 µM (inactive); in the assay on HL-60, 40.5 µM (inactive); in the assay with SNB-75 it was > 100 µM (inactive). Also, the GI50 with HCC 2998 was 24.7 µM (inactive); in the assay with LOX IMVI, 31.3 µM (inactive); in the assay on OVCAR-4 it was 16.2 µM (inactive); with K562 it was 49.1 µM (inactive); in the assay with SK-OV-3, > 100 µM (inactive); in the assay on U-251, > 100 µM (inactive). Also, the GI50 in the assay on MOLT-4 was 38.3 µM (inactive); in the assay with A549, 47.1 µM (inactive); in the assay with OVCAR-3 it was > 100 µM (inactive); in the assay with MDA-MB-231 it was > 100 µM (inactive); in the assay with NCI-H522, 68.9 µM (inactive); in the assay on T47D, 93.5 µM (inactive). Besides, the GI50 with SNB-19 is > 100 µM (inactive).

For `CC(=O)OCC1OC(N2C(C)=C(C(C)=O)C(c3ccc(Cl)cc3)C(C#N)=C2S)C(OC(C)=O)C(OC(C)=O)C1OC(C)=O` (configuration not stated), the GI50 with HT-29 was 42.7 µM (inactive); in the assay on SK-MEL-28, 47.1 µM (inactive); in the assay with IGROV-1, 57.5 µM (inactive); with HOP-62 it was > 100 µM (inactive); with SW-620, 5.46 µM (inactive); in the assay with HL-60 it was 37.3 µM (inactive). Further, the GI50 was 27.9 µM (inactive) with SNB-75; 47.1 µM (inactive) in the assay on HCC 2998; 76.2 µM (inactive) in the assay on LOX IMVI; 51.6 µM (inactive) with OVCAR-4; 31.1 µM (inactive) with K562; 66.5 µM (inactive) in the assay with U-251. For the same molecule, the GI50 in the assay with MOLT-4 is 18.6 µM (inactive); with A549, 49.9 µM (inactive); in the assay on OVCAR-3, 61.4 µM (inactive); in the assay on MDA-MB-231, 87.5 µM (inactive); in the assay on NCI-H522, 32.4 µM (inactive); in the assay on T47D, 24.5 µM (inactive). In the assay with SNB-19, the GI50 is > 100 µM (inactive).

For the molecule `CC(C)c1c(O)ccc2c1CCC1C(C)(C)CCCC21C` (configuration not stated), the GI50 is 16.9 µM (inactive) in the assay with HT-29; 21.3 µM (inactive) in the assay with SK-MEL-28; 16.3 µM (inactive) in the assay with IGROV-1; 20 µM (inactive) in the assay with SW-620; 29 µM (inactive) in the assay with HL-60; 18.6 µM (inactive) in the assay with SNB-75. For the same molecule, the GI50 in the assay on HCC 2998 was 22 µM (inactive); in the assay on LOX IMVI, 17.1 µM (inactive); in the assay with OVCAR-4, 17.5 µM (inactive); with K562 it was 21.6 µM (inactive); in the assay on SK-OV-3 it was 18.9 µM (inactive); in the assay with U-251, 18 µM (inactive). The GI50 with MOLT-4 was 19.1 µM (inactive); in the assay with A549 it was 17 µM (inactive); in the assay with OVCAR-3 it was 18.6 µM (inactive); in the assay with MDA-MB-231, 19 µM (inactive); in the assay on NCI-H522, 16.9 µM (inactive); with T47D, 0.0173 µM (active). Also, the GI50 in the assay on SNB-19 was 18.2 µM (inactive).
